US20140121220A1, “CRYSTALS OF PHENYLPYRROLE DERIVATIVE” (Daiichi Sankyo Company, Limited, priority 2011, published 2014)
Converted amounts (≈) assume the structure as drawn. Like-named read-outs stand apart in the source and are kept apart here.

Legend:
[1] = Solubility test (Test Example 4); assay type: physicochemical; details: 4 mg in 2 mL; for solubility at 30 min: 37 °C, thermodynamic from solid, read-out: Concentration (solubility); for Concentration (solubility): 37° C., 30 minutes
Method: The Form I crystal (4 mg), the Form II crystal (4 mg) and Compound II (4 mg) were respectively dissolved in 2 mL of water, Japanese Pharmacopoeia Elution Test Solution 1 (JP1), Japanese Pharmacopoeia Elution Test Solution 2 (JP2), Fasted State Simulated Intestinal Fluid (FaSSIF) and Fed State Simulated Intestinal Fluid (FeSSIF). After stirring vigorously for 30 seconds every 5 minutes in a constant temperature water bath at 37° C., a portion of the supernatant was sampled 30 minutes later and filtered with a syringe filter. The filtrate was suitably diluted for use as the sample solution.
The sample solution was measured using HPLC under the following conditions.
HPLC system: Waters Alliance
Column: Waters, XBridge C18 3.5 μm
Column temperature: 40° C.
Solvent A: 5 mM aqueous ammonium hydrogencarbonate solution
The gradient program is as indicated below.

[2] = tested on: spontaneously diabetic rats (ZDF-Lepr^fa/CrlCrlj); assay: Blood glucose lowering activity test (Test Example 6); assay type: in vivo, rat; details: for Area under blood glucose curve: 0 to 6 hours after oral administration, fasting, Form I crystal 10 mg/kg, Compound II 8.3 mg/kg (equivalent as free form), average of five
Method: Male, 9-week-old, spontaneously diabetic rats (ZDF-Lepr^fa/CrlCrlj) were used.
A crystal of the compound of the present invention in the form of the Form I crystal at 10 mg/kg or the free form thereof in the form of Compound II at 8.3 mg/kg (calculated based on the free form, corresponding to the equivalent of 10 mg/kg of the Form I crystal) was respectively suspended in a 20% aqueous HP-β-cyclodextrin solution (hereinafter referred to as “vehicle”) and orally administered under fasting conditions.
Blood glucose levels were measured in accordance with ordinary methods before administration of the compounds (at 0 hour) and at 0.5, 1, 2, 4 and 6 hours after administration. Namely, the tips of the rat tails (about 1 mm) were severed and blood collected with hematocrit tubes subjected to anticoagulation treatment with heparin were centrifuged followed by measuring the resulting plasma with the Glucoroder F (A&T Corporation). The areas under blood glucose curves from 0 to 6 hours after administration were calculated using the resulting blood glucose values.
The results of a blood glucose lowering activity test on each group administered with the Form I crystal, Compound II or vehicle only were as shown in Table 8.
Furthermore, the values shown in Table 8 are all the average values of test result values obtained using five spontaneously diabetic rats (ZDF-Lepr^fa/CrlCrlj).

[3] = Hygroscopicity test (Test Example 3); assay type: physicochemical; details: 25° C., 10 to 90% RH
Method: The sample was weighed in a glass sample cup, and weight was measured under the conditions indicated below.
Measuring instrument: SGA-100 (VTI Corp.)
Measuring temperature: 25° C.
Minimum exposure time: 15 min
Maximum exposure time: 120 min
Step transition condition: within 0.03 wt %
The appearance of the sample was observed following completion of measurement.

[4] = Evaluation of in vivo absorption
[5] = Fed State Simulated Intestinal Fluid (FeSSIF)
[6] = Japanese Pharmacopoeia Elution Test Solution 2 (JP2)
[7] = Fasted State Simulated Intestinal Fluid (FaSSIF)
[8] = Japanese Pharmacopoeia Elution Test Solution 1 (JP1)

SMILES	solubility at 30 min ([1]; Fasted State Simulated Intestinal Fluid (FaSSIF), fassif, Fasted State Simulated Intestinal Fluid (FaSSIF)) [µg/mL]	Concentration (solubility) [1, 5] [µg/mL]	solubility at 30 min ([1]; Japanese Pharmacopoeia Elution Test Solution 1 (JP1), pH 1.2, simulated gastric fluid, Japanese Pharmacopoeia Elution Test Solution 1 (JP1)) [µg/mL]	Concentration (solubility) [1, 6] [µg/mL]	Concentration (solubility) ([1]; Water) [µg/mL]	Area under blood glucose curve [2] [mg/dl × hr]	Hygroscopicity (moisture sorption-desorption behavior) [3]	Concentration (solubility) [1, 7] [µg/mL]	Concentration (solubility) [1, 8] [µg/mL]	Blood glucose lowering activity compared with Compound II ([2]; oral, 10 mg/kg Form I crystal vs 8.3 mg/kg Compound II)	Blood concentrations in comparison with Compound II [4]
C[C@H]1CN=C(c2ccc(-c3cc(Oc4cnc(S(C)(=O)=O)cn4)cc(O[C@@H](C)CO)c3)[nH]2)O1 [Compound II, (2S)-2-(3-{5-[(5S)-5-Methyl-4,5-dihydro-1,3-oxazol-2-yl]-1H-pyrrol-2-yl}-5-{[5-(methylsulfonyl)pyrazin-2-yl]oxy}phenoxy)propan-1-ol, reference compound]	12 (≈ 25.4 µM)	222	> 1500	5.87	5.59	661.8 ± 26.9	–	–	–	–	–
C[C@H]1CN=C(c2ccc(-c3cc(Oc4cnc(S(C)(=O)=O)cn4)cc(O[C@@H](C)CO)c3)[nH]2)O1 [Form I crystal, (2S)-2-(3-{5-[(5S)-5-Methyl-4,5-dihydro-1,3-oxazol-2-yl]-1H-pyrrol-2-yl}-5-{[5-(methylsulfonyl)pyrazin-2-yl]oxy}phenoxy)propan-1-ol monomethanesulfonate]	–	1145	–	11.8	>1500	529.0 ± 24.5	did not demonstrate hygroscopicity	20.4	>1500	superior to that of the free form	high blood concentrations in comparison with Compound II
C[C@H]1CN=C(c2ccc(-c3cc(Oc4cnc(S(C)(=O)=O)cn4)cc(O[C@@H](C)CO)c3)[nH]2)O1 [Form II crystal, (2S)-2-(3-{5-[(5S)-5-Methyl-4,5-dihydro-1,3-oxazol-2-yl]-1H-pyrrol-2-yl}-5-{[5-(methylsulfonyl)pyrazin-2-yl]oxy}phenoxy)propan-1-ol monomethanesulfonate]	–	1381	–	14.1	>1500	–	did not demonstrate hygroscopicity	20.5	>1500	–	high blood concentrations in comparison with Compound II
